From patent US20110039693A1, “Pyrimidylmethyl Sulfonamide Compounds” (BASF SE, priority 2008, published 2011)
Like-named read-outs stand apart in the source and are kept apart here.

Legend:
Puccinia recondita = experiment: Synergistic mixture glasshouse trial: preventative control of brown rust caused by Puccinia recondita; type: in vivo; details: single compound, wheat, untreated control 80% diseased leaf area
Procedure: The spray solutions were prepared in several steps: The stock solution were prepared: a mixture of acetone and/or dimethylsulfoxide and the wetting agent/emulsifier Wettol, which is based on ethoxylated alkylphenoles, in a relation (volume) solvent-emulsifier of 99 to 1 was added to 25 mg of the compound to give a total of 10 ml. Water was then added to total volume of 100 ml. This stock solution was diluted with the described solvent-emulsifier-water mixture to the given concentration.
The first two developed leaves of pot-grown wheat seedling were sprayed to run-off with an aqueous suspension, containing the concentration of active ingredient or their mixture as described below. The next day the plants were inoculated with spores of Puccinia recondita. To ensure the success the artificial inoculation, the plants were transferred to a humid chamber without light and a relative humidity of 95 to 99% and 20 to 22° C. for 24 h. Then the trial plants were cultivated for 6 days in a greenhouse chamber at 22-26° C. and a relative humidity between 65 and 70%. The extent of fungal attack on the leaves was visually assessed as % diseased leaf area.
The percentages diseased leaf area were converted into efficacies. An efficacy of 0 means that the infection level of the treated plants corresponds to that of the untreated control plants; an efficacy of 100 means that the treated plants were not infected.
The expected efficacies of active compound mixtures were determined using Colby's formula as described earlier herein.

Pyrenophora teres = experiment: Synergistic mixture microtiter test: Pyrenophora teres; type: cell-based; details: single compound
Septoria tritici = experiment: Synergistic mixture microtiter test: leaf blotch on wheat caused by Septoria tritici; type: cell-based; details: single compound
Alternaria solani = experiment: Synergistic mixture microtiter test: Alternaria solani; type: cell-based; details: single compound
Phytophthora infestans = type: cell-based; details: single compound

Structure (SMILES): Fc1ccc([C@]2(Cn3cncn3)O[C@H]2c2ccccc2Cl)cc1 (racemic) [Epoxiconazole, epoxiconazole, reference compound]
- Observed efficacy (%) (Puccinia recondita; 0.25 ppm): 0%
- Observed efficacy (%) (Pyrenophora teres; 0.25 ppm): 8%

Structure (SMILES): O=C(Nc1ccccc1-c1ccc(Cl)cc1)c1cccnc1Cl [Boscalid, boscalid, reference compound]
- Observed efficacy (%) (Puccinia recondita; 4 ppm): 0%
- Observed efficacy (%) (Puccinia recondita; 16 ppm): 0%
- Observed efficacy (%) (Pyrenophora teres; 0.016 ppm): 0%
- Observed efficacy (%) (Pyrenophora teres; 0.25 ppm): 63%
- Observed efficacy (%) (Septoria tritici; 4 ppm): 75%

Structure (SMILES): CSc1nccc(CNS(=O)(=O)c2ccc(Oc3ncc(C(F)(F)F)cc3Cl)cc2)n1 [Example I-5]
- Observed efficacy (%) (Pyrenophora teres; 0.25 ppm): 0%
- Observed efficacy (%) (Pyrenophora teres; 4 ppm): 21%
- Observed efficacy (%) (Septoria tritici; 4 ppm): 22%
- Observed efficacy (%) (Alternaria solani; 0.25 ppm): 2%

Structure (SMILES): COc1nccc(CNS(=O)(=O)c2ccc(Oc3ncc(C(F)(F)F)cc3Cl)c(C)c2)n1 [Example I-17, 4-(3-chloro-5-trifluoromethyl-pyridin-2-yloxy)-N-(2-methoxy-pyrimidin-4-ylmethyl)-3-methyl-benzenesulfonamide]
- melting point: 138 °C

Structure (SMILES): COc1nccc(CNS(=O)(=O)c2ccc(Oc3ccc(C(F)(F)F)cn3)cc2C)n1 [Example I-22]
- Observed efficacy (%) (Pyrenophora teres; 0.016 ppm): 1%
- Observed efficacy (%) (Alternaria solani; 0.25 ppm): 3%

Structure (SMILES): O=S(=O)(NCc1ccnc(C2CC2)n1)c1ccc(Oc2ncccc2C(F)(F)F)cc1 [Example I-27]
- Observed efficacy (%) (Puccinia recondita; 16 ppm): 27%
- Observed efficacy (%) (Pyrenophora teres; 4 ppm): 26%
- Observed efficacy (%) (Septoria tritici; 4 ppm): 27%
- Observed efficacy (%) (Alternaria solani; 0.25 ppm): 3%
- Observed efficacy (%) (Alternaria solani; 4 ppm): 0%

Structure (SMILES): CCOc1nccc(CNS(=O)(=O)c2ccc(Oc3ncccc3C(F)(F)F)cc2)n1 [Example I-52]
- Observed efficacy (%) (Puccinia recondita; 16 ppm): 29%
- Observed efficacy (%) (Septoria tritici; 4 ppm): 29%
- Observed efficacy (%) (Phytophthora infestans; 16 ppm): 53%
- Observed efficacy (%) (Alternaria solani; 0.25 ppm): 0%
- Observed efficacy (%) (Alternaria solani; 4 ppm): 0%

Structure (SMILES): CSc1ncc(F)c(CNS(=O)(=O)c2ccc(Oc3ccc(C(F)(F)F)cn3)cc2)n1 [Example I-72]
- Observed efficacy (%) (Puccinia recondita; 4 ppm): 0%
- Observed efficacy (%) (Puccinia recondita; 16 ppm): 0%
- Observed efficacy (%) (Pyrenophora teres; 4 ppm): 14%
- Observed efficacy (%) (Septoria tritici; 4 ppm): 14%
- Observed efficacy (%) (Alternaria solani; 0.25 ppm): 3%

Structure (SMILES): COc1cc(CNS(=O)(=O)c2ccc(Oc3ccc(C(F)(F)F)cn3)cc2)nc(OC)n1 [Example I-88]
- Observed efficacy (%) (Pyrenophora teres; 0.25 ppm): 16%
- Observed efficacy (%) (Alternaria solani; 0.25 ppm): 4%

Structure (SMILES): COc1cc(CNS(=O)(=O)c2ccc(Oc3ncc(C(F)(F)F)cc3Cl)cc2)nc(OC)n1 [Example I-118]
- Observed efficacy (%) (Septoria tritici; 4 ppm): 25%
- Observed efficacy (%) (Alternaria solani; 0.25 ppm): 1%

Structure (SMILES): COc1nccc(CNS(=O)(=O)c2ccc(OCc3cncc(C(F)(F)F)c3)cc2)n1 [Example I-125]
- Observed efficacy (%) (Puccinia recondita; 4 ppm): 13%
- Observed efficacy (%) (Septoria tritici; 4 ppm): 23%
- Observed efficacy (%) (Alternaria solani; 0.25 ppm): 4%

Structure (SMILES): COC(=O)N(OC)c1ccccc1COc1ccn(-c2ccc(Cl)cc2)n1 [Pyraclostrobin, pyraclostrobin, reference compound]
- Observed efficacy (%) (Puccinia recondita; 0.25 ppm): 0%
- Observed efficacy (%) (Pyrenophora teres; 0.004 ppm): 0%
- Observed efficacy (%) (Septoria tritici; 0.063 ppm): 74%
- Observed efficacy (%) (Phytophthora infestans; 0.25 ppm): 38%
- Observed efficacy (%) (Alternaria solani; 0.063 ppm): 48%
